In patent US6187793A, “7-[(Piperidin-1-YL)-Propoxy]-chromen-4-one derivatives, their preparation and their pharmaceutical use” (Ferrer Internacional, S.A., priority 1997, dated 2001):
“Also recorded” adds a separate entry of the source. Read-outs that look alike come from different tables or passages of the source.

Columns and labels:
[1] = catalepsy test (cataleptic activity, oral route); settings: rat
Experimental: (§1) For assessment, each animal was placed on the bottom of a small upright box ([…]). The walls of the box were made of translucent methacrylate except one of the lateral surfaces (7.5 cm wide) which was a 3-mm wire mesh. The position of the animal was scored for 2 minutes according to the following criteria: 0=four paws on the floor; 1=three paws on the floor; 2=two paws on the floor; 3=one paw on the floor; and 4=four paws holding the wire mesh. If an animal keeps several positions within the 2-min observation, the seconds elapsed in each position will be recorded. Finally, mean scoring was calculated.

5-HT2A receptors = target: T1, 5-HT2A receptors (Rattus norvegicus, UniProt P14842); assay: specific binding to 5-HT2A receptors ([3H]ketanserin, rat cortex membrane); settings: for IC50: [3H]ketanserin 0.5 nM, rat cortex, 30 min, 35° C., pH 7.4; for potency as ligand of 5-HT2A receptors versus compound of Example 2' of ES 9600323: in words, from Table 1
T1 construct: membrane corresponding to 1 mg of rat cortex; from tissue; host or cells: rat cortex membrane
T1 sequence (P14842 whole entry): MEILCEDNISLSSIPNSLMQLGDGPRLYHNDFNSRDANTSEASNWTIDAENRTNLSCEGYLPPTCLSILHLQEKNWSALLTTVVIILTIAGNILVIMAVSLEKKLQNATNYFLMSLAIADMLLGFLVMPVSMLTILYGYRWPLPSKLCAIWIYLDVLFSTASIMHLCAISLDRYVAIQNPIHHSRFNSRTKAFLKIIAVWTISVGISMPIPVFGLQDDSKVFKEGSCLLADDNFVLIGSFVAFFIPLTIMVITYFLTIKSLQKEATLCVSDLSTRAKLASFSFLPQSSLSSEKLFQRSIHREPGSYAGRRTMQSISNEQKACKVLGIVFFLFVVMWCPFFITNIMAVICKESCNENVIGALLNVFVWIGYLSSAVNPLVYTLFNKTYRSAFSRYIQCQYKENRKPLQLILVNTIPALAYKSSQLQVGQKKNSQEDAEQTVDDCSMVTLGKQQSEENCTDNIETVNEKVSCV

histamine H1 receptors = target: T2, histamine H1 receptors (Cavia porcellus, UniProt P31389); assay: biochemical; format: binding, guinea-pig; settings: for potency as ligand of H1 receptors versus compound of Example 2' of ES 9600323 / potency as ligand of H1 receptors versus promethazine: in words, from Table 2
T2 construct: incubation of guinea-pig cerebellum membranes; from tissue; host or cells: guinea-pig cerebellum membranes
T2 sequence (P31389 whole entry): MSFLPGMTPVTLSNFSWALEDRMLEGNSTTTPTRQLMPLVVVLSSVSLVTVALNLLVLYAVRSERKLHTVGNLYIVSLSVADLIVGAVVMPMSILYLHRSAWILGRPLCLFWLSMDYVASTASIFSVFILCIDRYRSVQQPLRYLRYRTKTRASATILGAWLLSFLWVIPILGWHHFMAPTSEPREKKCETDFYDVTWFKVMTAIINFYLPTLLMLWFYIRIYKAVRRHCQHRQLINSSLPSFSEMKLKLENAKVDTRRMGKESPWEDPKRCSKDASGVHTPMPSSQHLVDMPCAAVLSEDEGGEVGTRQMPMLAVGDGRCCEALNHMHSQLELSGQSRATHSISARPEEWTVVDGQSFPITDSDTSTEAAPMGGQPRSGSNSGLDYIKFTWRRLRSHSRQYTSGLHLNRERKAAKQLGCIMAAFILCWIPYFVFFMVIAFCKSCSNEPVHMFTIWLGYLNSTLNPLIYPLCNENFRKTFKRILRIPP
Experimental: The bound radioactivity was separated by filtration (Whatman GF/B) in a Brandel Harvester. The amount of receptor-bound radioactivity present in the filters was determined using a Packard 1800TR counter. The specific binding was established with a 1 μM concentration of triprolidine.

[2] = tested on: apomorphine-induced climbing behaviour; assay: inhibition test of apomorphine-induced climbing behaviour; format: in vivo, male Swiss mice; settings: Mus musculus, 1 h, read-out: Climbing ID50
Experimental: For the practical performance of this experiment, male Swiss mice weighing 22-24 g were used. One week prior to experiment, animals were kept in our facilities at a temperature of 20-22° C. and 12/12 h light-dark cycle, and had free access to food and water. Two hours prior to experiment, the animals were placed in individual cages without access to food.
Animals were administered orally with test drug or 0.25% agar at time 0. After 60 minutes, apomorphine was subcutaneously injected at a dose of 1 mg/kg, and after further 70 minutes the animal's behaviour was assessed. Two additional assessments were performed at 10-min intervals.
as §1

D2 receptors = D2 receptors (Rattus norvegicus, UniProt P61169); assay: specific binding to D2 receptors ([3H]spiperone, rat striatum membrane); settings: in words, from Table 1
D2 receptors, sequence (P61169 whole entry): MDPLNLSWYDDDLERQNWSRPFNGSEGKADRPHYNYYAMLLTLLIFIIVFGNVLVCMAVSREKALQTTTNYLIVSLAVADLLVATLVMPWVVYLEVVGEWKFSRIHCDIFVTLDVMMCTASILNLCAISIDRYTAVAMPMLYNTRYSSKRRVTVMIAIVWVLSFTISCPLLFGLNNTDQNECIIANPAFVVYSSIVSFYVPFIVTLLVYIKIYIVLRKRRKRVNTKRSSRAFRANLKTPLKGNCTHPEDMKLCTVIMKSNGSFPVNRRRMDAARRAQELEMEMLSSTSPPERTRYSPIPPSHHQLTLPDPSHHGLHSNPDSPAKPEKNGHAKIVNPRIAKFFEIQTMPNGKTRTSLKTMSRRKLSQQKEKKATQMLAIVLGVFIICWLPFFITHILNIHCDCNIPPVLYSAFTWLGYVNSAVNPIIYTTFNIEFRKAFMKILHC

[3] = therapeutic index (catalepsy ED50 / climbing ID50); settings: for selectivity ratio: in vivo, po; for therapeutic index versus compound of Example 2' of ES 9600323 and haloperidol: in words, from Table 3
Experimental: as §1

[4] = oral, male Swiss mice, apomorphine 1 mg/kg s.c. after 60 minutes

Structure (SMILES): O=c1c(CO)coc2cc(OCCCN3CCC(c4noc5cc(F)ccc45)CC3)ccc12 [Ex. 2' (ES 9600323), reference compound]
- TD50 ([1]; in vivo): 3.8 mg/kg
- IC50 (5-HT2A receptors): 3.08 nM
- IC50 (histamine H1 receptors; [3H]-pyrilamine 1 nM, guinea-pig cerebellum, 25° C., 60 minutes, read-out: IC50, H1 receptors): 1.2 nM
- ED50 ([2]; po): 0.25 mg/kg

Structure (SMILES): O=Cc1coc2cc(OCCCN3CCC(c4noc5cc(F)ccc45)CC3)ccc2c1=O [Example 1, 7-[3-[4-(6-fluorobenzo[d]isoxazole-3-yl)piperidine-1-yl]propoxy]-3-formyl-chromen-4-one]
- IC50 (5-HT2A receptors): 2.11 nM
- potency as ligand of 5-HT2A receptors versus compound of Example 2' of ES 9600323 (5-HT2A receptors): more potent
- potency as ligand of D2 receptors versus compound of Example 2' of ES 9600323 (D2 receptors): more potent

Structure (SMILES): Cl.O=C(O)c1coc2cc(OCCCN3CCC(c4noc5cc(F)ccc45)CC3)ccc2c1=O [Example 2, 7-[3-[4-(6-fluorobenzo[d]isoxazole-3-yl)piperidin-1-yl]propoxy]-4-oxochromene-3-carboxylic acid hydrochloride]
- IC50 (5-HT2A receptors): 0.594 nM
- potency as ligand of 5-HT2A receptors versus compound of Example 2' of ES 9600323 (5-HT2A receptors): more potent
- potency as ligand of D2 receptors versus compound of Example 2' of ES 9600323 (D2 receptors): more potent

Structure (SMILES): COCc1coc2cc(OCCCN3CCC(c4noc5cc(F)ccc45)CC3)ccc2c1=O.Cl [Example 3, 7-[3-[4-(6-fluorobenzo[d]isoxazole-3-yl)piperidin-1-yl]propoxy]-3-methoxymethyl-chromen-4-one hydrochloride]
- selectivity ratio [3]: 32.3
- therapeutic index versus compound of Example 2' of ES 9600323 and haloperidol [3]: higher therapeutic index
- TD50 ([1]; po): 6.79 mg/kg
- IC50 (histamine H1 receptors): 0.339 nM
- potency as ligand of H1 receptors versus compound of Example 2' of ES 9600323 (histamine H1 receptors): more potent
- potency as ligand of H1 receptors versus promethazine (histamine H1 receptors; hydrochloride): of the same order as promethazine; also recorded: greater than that of standard promethazine
- ED50 [2, 4]: 0.21 mg/kg

Structure (SMILES): Cl.O=c1cc(CO)oc2cc(OCCCN3CCC(c4noc5cc(F)ccc45)CC3)ccc12 [Example 6, 7-[3-[4-(6-fluorobenzo[d]isoxazole-3-yl)piperidin-1-yl]propoxy]-2-(hydroxymethyl)-chromen-4-one hydrochloride]
- selectivity ratio [3]: > 17
- therapeutic index versus compound of Example 2' of ES 9600323 and haloperidol [3]: higher therapeutic index
- TD50 ([1]; po): > 100 mg/kg
- IC50 (histamine H1 receptors): 1.01 nM
- potency as ligand of H1 receptors versus compound of Example 2' of ES 9600323 (histamine H1 receptors): more potent
- potency as ligand of H1 receptors versus promethazine (histamine H1 receptors): of the same order as promethazine
- ED50 [2, 4]: 5.87 mg/kg

Structure (SMILES): O=C(CCCN1CCC(O)(c2ccc(Cl)cc2)CC1)c1ccc(F)cc1 [Haloperidol, haloperidol, reference compound]
- TD50 ([1]; in vivo): 2 mg/kg
- ED50 [2, 4]: 0.32 mg/kg
